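1) Cells in 96-well plates. 2) Compound, 48 h, 5 concentrations. 3) Linear interpolation between surrounding doses. 4) Unreached endpoint = highest concentration. GI50 is the concentration that inhibits growth by half. At the TGI there is no net growth.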
How the values were obtained:
Assay in all cases: DTP human tumour cell line panel, 48 h
OVCAR-4 ovarian = tested on: OVCAR-4 ovarian
RXF 393 renal = tested on: RXF 393 renal
OVCAR-8 ovarian = tested on: OVCAR-8 ovarian
ACHN renal = tested on: ACHN renal
KM12 colon = tested on: KM12 colon
COLO 205 colon = tested on: COLO 205 colon
HS 578T breast = tested on: HS 578T breast
BT-549 breast = tested on: BT-549 breast
SK-OV-3 ovarian = tested on: SK-OV-3 ovarian
786-0 renal = tested on: 786-0 renal
SF-295 CNS = tested on: SF-295 CNS
A498 renal = tested on: A498 renal
SR leukemia = tested on: SR leukemia
RPMI-8226 leukemia = tested on: RPMI-8226 leukemia
EKVX NSCLC = tested on: EKVX NSCLC
MALME-3M melanoma = tested on: MALME-3M melanoma
SW-620 colon = tested on: SW-620 colon
HCT-15 colon = tested on: HCT-15 colon
MDA-MB-435 = tested on: MDA-MB-435
HL-60(TB) leukemia = tested on: HL-60(TB) leukemia
OVCAR-3 ovarian = tested on: OVCAR-3 ovarian
HOP-92 NSCLC = tested on: HOP-92 NSCLC
NCI-H522 lung = tested on: NCI-H522 lung
SF-539 CNS = tested on: SF-539 CNS
A549 NSCLC = tested on: A549 NSCLC
CCRF-CEM leukemia = tested on: CCRF-CEM leukemia
HCT-116 colon = tested on: HCT-116 colon
SNB-19 CNS = tested on: SNB-19 CNS
CAKI-1 renal = tested on: CAKI-1 renal
MDA-MB-231 breast = tested on: MDA-MB-231 breast
TK-10 renal = tested on: TK-10 renal
K-562 leukemia = tested on: K-562 leukemia
HOP-62 NSCLC = tested on: HOP-62 NSCLC
SNB-75 CNS = tested on: SNB-75 CNS
NCI-H226 lung = tested on: NCI-H226 lung
DU-145 prostate = tested on: DU-145 prostate
UACC-257 melanoma = tested on: UACC-257 melanoma
M14 melanoma = tested on: M14 melanoma
UO-31 renal = tested on: UO-31 renal
U251 CNS = tested on: U251 CNS
SK-MEL-2 melanoma = tested on: SK-MEL-2 melanoma
NCI-H460 lung = tested on: NCI-H460 lung
SF-268 CNS = tested on: SF-268 CNS
OVCAR-5 ovarian = tested on: OVCAR-5 ovarian
HCC-2998 colon = tested on: HCC-2998 colon
MOLT-4 leukemia = tested on: MOLT-4 leukemia
SK-MEL-5 melanoma = tested on: SK-MEL-5 melanoma
SN12C renal = tested on: SN12C renal
PC-3 prostate = tested on: PC-3 prostate
IGROV1 ovarian = tested on: IGROV1 ovarian
T-47D breast = tested on: T-47D breast
UACC-62 melanoma = tested on: UACC-62 melanoma
MDA-MB-468 breast = tested on: MDA-MB-468 breast
SK-MEL-28 melanoma = tested on: SK-MEL-28 melanoma

SMILES: COC(=O)C[C@](O)(CCC(C)C)C(=O)O[C@@H]1C(OC)=C[C@]23CCCN2CCc2cc4c(cc2[C@H]13)OCO4
- GI50 (OVCAR-4 ovarian): 39.5 nM
- TGI (OVCAR-4 ovarian): 354 nM
- GI50 (RXF 393 renal): 39.9 nM
- TGI (RXF 393 renal): 285 nM
- GI50 (OVCAR-8 ovarian): 130 nM
- TGI (OVCAR-8 ovarian): 787 nM
- GI50 (ACHN renal): 40.2 nM
- TGI (ACHN renal): 272 nM
- GI50 (KM12 colon): 56.8 nM
- TGI (KM12 colon): 546 nM
- GI50 (COLO 205 colon): 91.6 nM
- TGI (COLO 205 colon): 397 nM
- GI50 (HS 578T breast): 138 nM
- TGI (HS 578T breast): 545 nM
- GI50 (BT-549 breast): 90.7 nM
- TGI (BT-549 breast): 412 nM
- GI50 (SK-OV-3 ovarian): 159 nM
- TGI (SK-OV-3 ovarian): 1620 nM
- GI50 (786-0 renal): 104 nM
- TGI (786-0 renal): 544 nM
- GI50 (SF-295 CNS): 135 nM
- TGI (SF-295 CNS): 662 nM
- GI50 (A498 renal): 17.3 nM
- TGI (A498 renal): 163 nM
- GI50 (SR leukemia): 18.2 nM
- TGI (SR leukemia): 57.2 nM
- GI50 (RPMI-8226 leukemia): 33.7 nM
- TGI (RPMI-8226 leukemia): 132 nM
- GI50 (EKVX NSCLC): 116 nM
- TGI (EKVX NSCLC): 775 nM
- GI50 (MALME-3M melanoma): 20.1 nM
- TGI (MALME-3M melanoma): 68.4 nM
- GI50 (SW-620 colon): 57.5 nM
- TGI (SW-620 colon): 473 nM
- GI50 (HCT-15 colon): 36.4 nM
- TGI (HCT-15 colon): 1270 nM
- GI50 (MDA-MB-435): 101 nM
- TGI (MDA-MB-435): 351 nM
- GI50 (HL-60(TB) leukemia): 14.3 nM
- TGI (HL-60(TB) leukemia): 65.5 nM
- GI50 (OVCAR-3 ovarian): 39 nM
- TGI (OVCAR-3 ovarian): 306 nM
- GI50 (HOP-92 NSCLC): 208 nM
- TGI (HOP-92 NSCLC): 724 nM
- GI50 (NCI-H522 lung): 21.2 nM
- TGI (NCI-H522 lung): 65.3 nM
- GI50 (SF-539 CNS): 23 nM
- TGI (SF-539 CNS): 58 nM
- GI50 (A549 NSCLC): 52.1 nM
- TGI (A549 NSCLC): 10700 nM
- GI50 (CCRF-CEM leukemia): 34.4 nM
- TGI (CCRF-CEM leukemia): 431 nM
- GI50 (HCT-116 colon): 36.3 nM
- TGI (HCT-116 colon): 1050 nM
- GI50 (SNB-19 CNS): 36 nM
- TGI (SNB-19 CNS): 305 nM
- GI50 (CAKI-1 renal): 179 nM
- TGI (CAKI-1 renal): 988 nM
- GI50 (MDA-MB-231 breast): 247 nM
- TGI (MDA-MB-231 breast): 690 nM
- GI50 (TK-10 renal): 136 nM
- TGI (TK-10 renal): 1090 nM
- GI50 (K-562 leukemia): 28.9 nM
- TGI (K-562 leukemia): 116 nM
- GI50 (HOP-62 NSCLC): 244 nM
- TGI (HOP-62 NSCLC): 1480 nM
- GI50 (SNB-75 CNS): 156 nM
- TGI (SNB-75 CNS): 417 nM
- GI50 (NCI-H226 lung): 31.7 nM
- TGI (NCI-H226 lung): 351 nM
- GI50 (DU-145 prostate): 145 nM
- TGI (DU-145 prostate): 645 nM
- GI50 (UACC-257 melanoma): 194 nM
- TGI (UACC-257 melanoma): 810 nM
- GI50 (M14 melanoma): 50.4 nM
- TGI (M14 melanoma): 196 nM
- GI50 (UO-31 renal): 49.8 nM
- TGI (UO-31 renal): 449 nM
- GI50 (U251 CNS): 39.2 nM
- TGI (U251 CNS): 4020 nM
- GI50 (SK-MEL-2 melanoma): 216 nM
- TGI (SK-MEL-2 melanoma): 642 nM
- GI50 (NCI-H460 lung): 21.2 nM
- TGI (NCI-H460 lung): 82 nM
- GI50 (SF-268 CNS): 192 nM
- TGI (SF-268 CNS): 709 nM
- GI50 (OVCAR-5 ovarian): 170 nM
- TGI (OVCAR-5 ovarian): 596 nM
- GI50 (HCC-2998 colon): 26.9 nM
- TGI (HCC-2998 colon): 129 nM
- GI50 (MOLT-4 leukemia): 20.2 nM
- TGI (MOLT-4 leukemia): 140 nM
- GI50 (SK-MEL-5 melanoma): 43.1 nM
- TGI (SK-MEL-5 melanoma): 181 nM
- GI50 (SN12C renal): 259 nM
- TGI (SN12C renal): 1110 nM
- GI50 (PC-3 prostate): 52.1 nM
- TGI (PC-3 prostate): 756 nM
- GI50 (IGROV1 ovarian): 64.7 nM
- TGI (IGROV1 ovarian): 525 nM
- GI50 (T-47D breast): 191 nM
- TGI (T-47D breast): 919 nM
- GI50 (UACC-62 melanoma): 144 nM
- TGI (UACC-62 melanoma): 603 nM
- GI50 (MDA-MB-468 breast): 25.5 nM
- TGI (MDA-MB-468 breast): 115 nM
- GI50 (SK-MEL-28 melanoma): 70.6 nM
- TGI (SK-MEL-28 melanoma): 352 nM

From PubChem BioAssay (NCI)
